The source of these data is patent US8343973B2, “Phenoxymethyl heterocyclic compounds” (EnVivo Pharmaceuticals, Inc., priority 2009, dated 2013).

Sequence of Human PDE10A1 (Q9Y233 1-779 isoform Q9Y233-1): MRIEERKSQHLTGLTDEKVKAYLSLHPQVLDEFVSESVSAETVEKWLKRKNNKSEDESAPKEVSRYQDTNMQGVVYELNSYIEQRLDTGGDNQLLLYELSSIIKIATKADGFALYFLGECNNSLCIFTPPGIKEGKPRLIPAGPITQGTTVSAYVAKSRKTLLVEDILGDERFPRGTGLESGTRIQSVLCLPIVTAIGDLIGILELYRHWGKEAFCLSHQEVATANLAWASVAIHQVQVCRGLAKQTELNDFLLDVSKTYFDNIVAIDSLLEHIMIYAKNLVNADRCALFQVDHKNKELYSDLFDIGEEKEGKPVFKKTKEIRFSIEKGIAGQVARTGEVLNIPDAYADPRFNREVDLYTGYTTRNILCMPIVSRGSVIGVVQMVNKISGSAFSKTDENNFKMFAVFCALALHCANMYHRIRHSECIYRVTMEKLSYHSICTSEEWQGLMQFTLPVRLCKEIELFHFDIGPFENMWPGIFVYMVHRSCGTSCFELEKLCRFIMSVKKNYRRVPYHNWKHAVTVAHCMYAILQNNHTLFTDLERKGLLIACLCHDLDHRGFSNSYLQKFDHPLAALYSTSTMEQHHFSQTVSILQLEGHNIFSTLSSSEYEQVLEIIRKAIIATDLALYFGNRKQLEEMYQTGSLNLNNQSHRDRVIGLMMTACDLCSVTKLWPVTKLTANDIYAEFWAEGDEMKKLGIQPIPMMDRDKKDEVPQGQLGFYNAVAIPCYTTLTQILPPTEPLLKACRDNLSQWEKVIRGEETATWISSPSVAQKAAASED

System in the first assay: not given
Assay: not given
The note with it: rats; cited from earlier work.
`COc1ccc(Cc2nccc3cc(OC)c(OC)cc23)cc1OC` [papaverine]: the apomorphine induced stereotypes result is recorded as “reduces”, the haloperidol induced catalepsy entry is reported as “increases” and the “rat brain dopamine levels” value is “reduces”.

A further assay concerns the target Human PDE10A1 (Homo sapiens, UniProt Q9Y233). Nature of the assay: hPDE10A1 enzyme inhibition ([3H]-cAMP hydrolysis, scintillation). It is filed as biochemical. Particulars: Human PDE10A1, [3H]-cAMP substrate; read-out: hPDE10A1 IC50 Band. Here is the method:
hPDE10A1 Enzyme Activity: 50 μl samples of serially diluted Human PDE10A1 enzyme were incubated with 50 μl of [^3H]-cAMP for 20 minutes (at 37° C.). Reactions were carried out in Greiner 96 deep well 1 ml master-block. The enzyme was diluted in 20 mM Tris HCl pH7.4 and [^3H]-cAMP was diluted in 10 mM MgCl2, 40 mM Tris.HCl pH 7.4. The reaction was terminated by denaturing the PDE enzyme (at 70° C.) after which [^3H]-5′-AMP was converted to [^3H]-adenosine by adding 25 μl snake venom nucleotidase and incubating for 10 minutes (at 37° C.). Adenosine, being neutral, was separated from charged cAMP or AMP by the addition of 200 μl Dowex resin. Samples were shaken for 20 minutes then centrifuged for 3 minutes at 2,500 r.p.m. 50 μl of supernatant was removed and added to 200 μl of MicroScint-20 in white plates (Greiner 96-well Optiplate) and shaken for 30 minutes before reading on Perkin Elmer TopCount Scintillation Counter.
hPDE10A1 Enzyme Inhibition: To check inhibition profile 11 μl of serially diluted inhibitor was added to 50 μl of [^3H]-cAMP and 50 ul of diluted Human PDE10A1 and assay was carried out as in the enzyme activity assay. Data was analysed using Prism software (GraphPad Inc).
For the compound `CC1(C)OC(c2ccc(C#N)cc2)=C(c2ccc(OCc3cn4ccccc4n3)cc2)C1=O` [4-(3-(4-(imidazo[1,2-a]pyridin-2-ylmethoxy)phenyl)-5,5-dimethyl-4-oxo-4,5-dihydrofuran-2-yl)benzonitrile], the concentration for half-maximal inhibition (IC50) is no more than 10 nM.

As for `COc1ccc(C2=C(c3ccc(OCc4ncc(C)cc4C)cc3)C(=O)C(C)(C)O2)cc1` [4-(4-((3,5-dimethylpyridin-2-yl)methoxy)phenyl)-5-(4-methoxyphenyl)-2,2-dimethylfuran-3(2H)-one], the IC50 was no more than 10 nM.

Take `COc1ccc(C2=C(c3ccc(OCc4nc5ccccn5c4Cl)cc3)C(=O)C(C)(C)O2)cc1` [4-(4-((3-chloroimidazo[1,2-a]pyridin-2-yl)methoxy)phenyl)-5-(4-methoxyphenyl)-2,2-dimethylfuran-3(2H)-one]: the IC50 was no more than 10 nM.

`COc1ccc(C2=C(c3ccc(OCc4cn5cc(Cl)ccc5n4)cc3)C(=O)C(C)(C)O2)cc1` [4-(4-((6-Chloroimidazo[1,2-a]pyridin-2-yl)methoxy)phenyl)-5-(4-methoxyphenyl)-2,2-dimethylfuran-3(2H)-one]: the IC50 is no more than 10 nM.

With `COc1ccc(C2=C(c3ccc(OCc4cn5nc(Cl)ccc5n4)cc3)C(=O)C(C)(C)O2)cc1` [4-(4-((6-chloroimidazo[1,2-b]pyridazin-2-yl)methoxy)phenyl)-5-(4-methoxyphenyl)-2,2-dimethylfuran-3(2H)-one], the IC50 lay within 10 to 50 nM.

Take `COc1ccc(C2=C(c3ccc(OCc4cn5ccccc5n4)cc3)C(=O)C(C)(C)O2)cc1` [4-(4-(imidazo[1,2-a]pyridin-2-ylmethoxy)phenyl)-5-(4-methoxyphenyl)-2,2-dimethylfuran-3(2H)-one]: the IC50 was no more than 10 nM.

Turning to `COc1ccc(C2=C(c3ccc(OCc4cn5ncccc5n4)cc3)C(=O)C(C)(C)O2)cc1` [4-(4-(imidazo[1,2-b]pyridazin-2-ylmethoxy)phenyl)-5-(4-methoxyphenyl)-2,2-dimethylfuran-3(2H)-one], the 50% inhibitory concentration (IC50) was no more than 10 nM.

As to `COc1ccc(C2=C(c3ccc(OCc4ccc5nccn5n4)cc3)C(=O)C(C)(C)O2)cc1` [4-(4-(imidazo[1,2-b]pyridazin-6-ylmethoxy)phenyl)-5-(4-methoxyphenyl)-2,2-dimethylfuran-3(2H)-one], the IC50 lay within 10 to 50 nM.

For the compound `Cc1ccc(COc2ccc(C3=C(c4ccc(C#N)cc4)OC(C)(C)C3=O)cc2)nc1` [4-(5,5-dimethyl-3-(4-((5-methylpyridin-2-yl)methoxy)phenyl)-4-oxo-4,5-dihydrofuran-2-yl)benzonitrile], the half-maximal inhibitory concentration (IC50) is no more than 10 nM.

Consider `COc1ccc(C2=C(c3ccc(OCc4nc5ccccn5c4C)cc3)C(=O)C(C)(C)O2)cc1` [5-(4-Methoxyphenyl)-2,2-dimethyl-4-(4-((3-methylimidazo[1,2-a]pyridin-2-yl)methoxy)phenyl)furan-3(2H)-one], for which the IC50 lay within 10 to 50 nM.

Turning to `COc1ccc(C2=C(c3ccc(OCc4cn5c(C)cccc5n4)cc3)C(=O)C(C)(C)O2)cc1` [5-(4-Methoxyphenyl)-2,2-dimethyl-4-(4-((5-methylimidazo[1,2-a]pyridin-2-yl)methoxy)phenyl)furan-3(2H)-one], the half-maximal inhibitory concentration (IC50) was no more than 10 nM.

In the case of `COc1ccc(C2=C(c3ccc(OCc4ccc(C)cn4)cc3)C(=O)C(C)(C)O2)cc1` [5-(4-methoxyphenyl)-2,2-dimethyl-4-(4-((5-methylpyridin-2-yl)methoxy)phenyl)furan-3(2H)-one], the half-maximal inhibitory concentration (IC50) was no more than 10 nM.
